Data: the NIST ThermoML archive (doi:10.1016/j.jct.2017.10.002)
Values joined by “and” are separate entries in the source; they are usually repeats but may differ in a detail not shown here. Equal values may be shown once.

Test: molar heat capacity at constant pressure
Details: 101.33 kPa, relaxation calorimetry

CCc1ncc[n-]1.CCc1ncc[n-]1.[Zn+2] [zinc(II) 2-ethylimidazolide]
molar heat capacity at constant pressure
Details | Crystal | Glass
20.19 K | 17.81 J/K/mol | –
20.5 K | 16.98 J/K/mol and 13.71 J/K/mol | –
20.51 K | – | 17.11 J/K/mol
22.14 K | 20.77 J/K/mol | –
22.42 K | 16.31 J/K/mol | –
22.43 K | 19.56 J/K/mol | 19.76 J/K/mol
24.21 K | 23.64 J/K/mol | –
24.49 K | 22.58 J/K/mol and 19.45 J/K/mol | –
24.5 K | – | 22.96 J/K/mol
25 K | 24.79 J/K/mol and 20.1 J/K/mol and 23.3 J/K/mol | 23.65 J/K/mol
26.43 K | 26.91 J/K/mol | –
26.75 K | 22.61 J/K/mol | –
26.76 K | 25.8 J/K/mol | –
26.77 K | – | 26.23 J/K/mol
28.91 K | 30.23 J/K/mol | –
29.23 K | 26.38 J/K/mol | –
29.24 K | 29.64 J/K/mol | –
29.25 K | – | 30.22 J/K/mol
30 K | 31.85 J/K/mol and 27.7 J/K/mol and 30.79 J/K/mol | 31.35 J/K/mol
31.62 K | 34.05 J/K/mol | –
31.94 K | 30.76 J/K/mol | 34.68 J/K/mol
31.95 K | 33.91 J/K/mol | –
34.58 K | 38.37 J/K/mol | –
34.9 K | 38.58 J/K/mol and 35.55 J/K/mol | 39.27 J/K/mol
35 K | 38.9 J/K/mol and 35.64 J/K/mol and 38.68 J/K/mol | 39.25 J/K/mol
37.81 K | 43 J/K/mol | –
38.12 K | 40.86 J/K/mol | –
38.13 K | 43.67 J/K/mol | 43.79 J/K/mol
40 K | 45.99 J/K/mol and 43.91 J/K/mol and 46.78 J/K/mol | 46.98 J/K/mol
41.34 K | 47.77 J/K/mol | –
41.65 K | 46.75 J/K/mol | –
41.66 K | 49.38 J/K/mol | 49.23 J/K/mol
45 K | 53.17 J/K/mol and 52.4 J/K/mol and 54.79 J/K/mol | 54.36 J/K/mol
45.2 K | 53.79 J/K/mol | –
45.5 K | 53.14 J/K/mol | –
45.51 K | 55.55 J/K/mol | –
45.52 K | – | 55.25 J/K/mol
49.41 K | 59.46 J/K/mol | –
49.71 K | 60.01 J/K/mol | –
49.72 K | 62.24 J/K/mol | –
49.73 K | – | 61.57 J/K/mol
50 K | 60.35 J/K/mol and 60.38 J/K/mol and 62.49 J/K/mol | 61.68 J/K/mol
54.02 K | 65.55 J/K/mol | –
54.31 K | 67.15 J/K/mol | –
54.32 K | – | 68.04 J/K/mol
54.33 K | 68.86 J/K/mol | –
59.06 K | 72.12 J/K/mol | –
59.34 K | 74.94 J/K/mol | –
59.35 K | 76.53 J/K/mol | 75.28 J/K/mol
60 K | 73.51 J/K/mol and 75.98 J/K/mol and 77.48 J/K/mol | 76.22 J/K/mol
64.56 K | 79.28 J/K/mol | –
64.85 K | 83.06 J/K/mol | 82.76 J/K/mol
64.86 K | 84.44 J/K/mol | –
70 K | 86.38 J/K/mol and 90.67 J/K/mol and 92.04 J/K/mol | 89.94 J/K/mol
70.56 K | 86.79 J/K/mol | –
70.85 K | 91.72 J/K/mol | –
70.86 K | 93.1 J/K/mol | 90.79 J/K/mol
77.13 K | 95.12 J/K/mol | –
77.42 K | 100.73 J/K/mol | 99.43 J/K/mol
77.43 K | 102.26 J/K/mol | –
80 K | 98.35 J/K/mol and 103.93 J/K/mol and 105.47 J/K/mol | 102.42 J/K/mol
84.27 K | 104 J/K/mol | –
84.6 K | 109.85 J/K/mol | –
84.61 K | 111.93 J/K/mol | 108.29 J/K/mol
90 K | 109.29 J/K/mol and 115.76 J/K/mol and 117.61 J/K/mol | 113.66 J/K/mol
92.13 K | 112.13 J/K/mol | –
92.46 K | 118.78 J/K/mol | 116.45 J/K/mol
92.47 K | 120.62 J/K/mol | –
100 K | 119.26 J/K/mol and 126.37 J/K/mol and 128.56 J/K/mol | 123.8 J/K/mol
100.71 K | 118.91 J/K/mol | –
101.03 K | 127.27 J/K/mol | –
101.04 K | 129.19 J/K/mol | 124.6 J/K/mol
110 K | 128.39 J/K/mol and 136.02 J/K/mol and 138.51 J/K/mol | 133.08 J/K/mol
110.81 K | 128.62 J/K/mol | –
111.15 K | 136.95 J/K/mol | 133.87 J/K/mol
111.16 K | 139.25 J/K/mol | –
120 K | 136.82 J/K/mol and 144.91 J/K/mol and 147.68 J/K/mol | 141.69 J/K/mol
120.85 K | 137.96 J/K/mol | –
121.21 K | 146.05 J/K/mol | 142.99 J/K/mol
121.23 K | 149.18 J/K/mol | –
130 K | 144.69 J/K/mol and 153.25 J/K/mol and 156.24 J/K/mol | 149.79 J/K/mol
130.99 K | 145.58 J/K/mol | –
131.26 K | – | 150.5 J/K/mol
131.27 K | 153.88 J/K/mol | –
131.28 K | 157.12 J/K/mol | –
140 K | 152.15 J/K/mol and 161.18 J/K/mol and 164.35 J/K/mol | 157.54 J/K/mol
141.06 K | 152.68 J/K/mol | –
141.38 K | – | 158.36 J/K/mol
141.4 K | 162.12 J/K/mol | –
141.42 K | 164.9 J/K/mol | –
150 K | 159.28 J/K/mol and 168.81 J/K/mol and 172.14 J/K/mol | 165.02 J/K/mol
151.12 K | 159.89 J/K/mol | –
151.43 K | – | 166.3 J/K/mol
151.46 K | 170.21 J/K/mol | –
151.47 K | 173.16 J/K/mol | –
160 K | 166.18 J/K/mol and 176.23 J/K/mol and 179.71 J/K/mol | 172.32 J/K/mol
161.25 K | 166.65 J/K/mol | –
161.56 K | – | 173.36 J/K/mol
161.59 K | 177.25 J/K/mol | –
161.61 K | 180.61 J/K/mol | –
170 K | 172.92 J/K/mol and 183.53 J/K/mol and 187.14 J/K/mol | 179.51 J/K/mol
171.35 K | 173.33 J/K/mol | –
171.6 K | – | 180.21 J/K/mol
171.65 K | 184.06 J/K/mol | –
171.67 K | 188.03 J/K/mol | –
180 K | 179.56 J/K/mol and 190.75 J/K/mol and 194.49 J/K/mol | 186.63 J/K/mol
181.43 K | 180.52 J/K/mol | –
181.69 K | – | 187.69 J/K/mol
181.74 K | 192.24 J/K/mol | –
181.77 K | 196.44 J/K/mol | –
190 K | 186.14 J/K/mol and 197.94 J/K/mol and 201.82 J/K/mol | 193.72 J/K/mol
191.5 K | 187.51 J/K/mol | –
191.77 K | – | 195.38 J/K/mol
191.83 K | 199.47 J/K/mol | –
191.86 K | 203.36 J/K/mol | –
200 K | 192.7 J/K/mol and 205.14 J/K/mol and 209.16 J/K/mol | 200.81 J/K/mol
201.6 K | 194.57 J/K/mol | –
201.91 K | – | 202.56 J/K/mol
201.98 K | 207.07 J/K/mol | –
202.01 K | 211.73 J/K/mol | –
210 K | 199.27 J/K/mol and 212.36 J/K/mol and 216.56 J/K/mol | 207.92 J/K/mol
211.69 K | 200.92 J/K/mol | –
211.98 K | – | 209.72 J/K/mol
212.06 K | 214.46 J/K/mol | –
212.09 K | 218.97 J/K/mol | –
220 K | 205.88 J/K/mol and 219.65 J/K/mol and 224.03 J/K/mol | 215.06 J/K/mol
221.78 K | 207.56 J/K/mol | –
221.99 K | – | 216.74 J/K/mol
222.09 K | 221.43 J/K/mol | –
222.12 K | 225.68 J/K/mol | –
230 K | 212.55 J/K/mol and 227.01 J/K/mol and 231.6 J/K/mol | 222.25 J/K/mol
231.87 K | 213.47 J/K/mol | –
232.05 K | – | 223.82 J/K/mol
232.17 K | 228.3 J/K/mol | –
232.21 K | 233.03 J/K/mol | –
240 K | 219.29 J/K/mol and 234.46 J/K/mol and 239.29 J/K/mol | 229.49 J/K/mol
241.95 K | 220.69 J/K/mol | –
242.11 K | – | 230.23 J/K/mol
242.25 K | 235.6 J/K/mol | –
242.28 K | 240.2 J/K/mol | –
250 K | 226.12 J/K/mol and 242.01 J/K/mol and 247.11 J/K/mol | 236.79 J/K/mol
252.04 K | 227.71 J/K/mol | –
252.26 K | – | 238.21 J/K/mol
252.41 K | 243.81 J/K/mol | –
252.44 K | 248.76 J/K/mol | –
260 K | 233.06 J/K/mol and 249.68 J/K/mol and 255.08 J/K/mol | 244.16 J/K/mol
262.15 K | 234.66 J/K/mol | –
262.32 K | – | 245.55 J/K/mol
262.49 K | 251.06 J/K/mol | –
262.53 K | 256.2 J/K/mol | –
270 K | 240.1 J/K/mol and 257.46 J/K/mol and 263.21 J/K/mol | 251.6 J/K/mol
272.26 K | 239.9 J/K/mol | –
272.38 K | – | 253.18 J/K/mol
272.57 K | 259.14 J/K/mol | –
272.61 K | 264.93 J/K/mol | –
273.15 K | 242.35 J/K/mol and 259.94 J/K/mol and 265.8 J/K/mol | 253.96 J/K/mol
280 K | 247.27 J/K/mol and 265.38 J/K/mol and 271.5 J/K/mol | 259.1 J/K/mol
282.33 K | 249.22 J/K/mol | –
282.34 K | – | 261.68 J/K/mol
282.56 K | 268.2 J/K/mol | –
282.6 K | 274.43 J/K/mol | –
290 K | 254.56 J/K/mol and 273.43 J/K/mol and 279.96 J/K/mol | 266.68 J/K/mol
292.42 K | 254.66 J/K/mol | –
292.48 K | – | 268.78 J/K/mol
292.71 K | 275.78 J/K/mol | –
292.77 K | 282.45 J/K/mol | –
298.15 K | 260.6 J/K/mol and 280.09 J/K/mol and 287 J/K/mol | 272.9 J/K/mol
300 K | 261.99 J/K/mol and 281.62 J/K/mol and 288.61 J/K/mol | 274.31 J/K/mol
302.52 K | 265.92 J/K/mol | –
302.54 K | – | 275.95 J/K/mol
302.81 K | 283.82 J/K/mol | –
302.88 K | 291.43 J/K/mol | –
